Experimental data from US20020110808A1, “Toxicant-induced differential gene expression” (priority 2000, published 2002).

What was measured:
HepG2 cells [1] = test: Differential display PCR (DD-PCR) of mRNA from treated cells; type: cell-based, human; settings: visual inspection, not confirmed
Protocol: For each reverse transcription reaction, 50 ng of mRNA was incubated with a 3′ Anchored Primer (1 μM) at 65° C. for 5 minutes. The tubes were chilled and spun briefly. […] The final volume was 20 μl. Tubes were heated to 25° C. for 10 min, 42° C. for 60 min, and 70° C. for 15 min. The cDNA produced was either used immediately or stored at −20° C.
The DD-PCR was performed under the conditions recommended by Genomyx Corporation: 95° C. for 2 min; 4 cycles of 92° C. for 15 sec, 46° C. for 30 sec, 72° C. for 2 min; 25 cycles of 92° C. for 15 sec, 60° C. for 30 sec, 72° C. for 2 min; and one cycle of 72° C. for 7 min, followed by cooling at 4° C.
Stop solution (11 μl) was added to each reaction. The tubes were then heated for 2 min at 95° C. A 3-μl aliquot of each reaction was run on a 4.5% denaturing polyacrylamide gel for 16 hours at 800 V, 50° C. Under these conditions, bands ranging from 300 to 1200 base-pairs were well-resolved. Band excision and reamplification were performed according to the instructions given in the Genomyx Corporation protocol. The reamplification reaction mixture was added directly to the excised band and the PCRs were performed under the same conditions as the original DD-PCR, with the exceptions that the M13R(−48) and T7 primers (SEQ ID NO: 3 AND SEQ ID NO: 2, respectively) were used instead of the original anchored and arbitrary primers and [α-^33P]dATP was omitted. The PCR products were purified with S-400 HR microspin columns (Pharmacia).

HepG2 cells [2] = test: Dot blot array expression assay; settings: for Number of 27 unconfirmed or non-matching clones showing an expression change: two-fold threshold
Protocol: The quality of the PCR reactions was assessed by agarose gel electrophoresis. Human genomic DNA (Clontech) and PCR products were robotically dotted in 100 nl aliquots onto positively-charged nylon membranes using the BioDot instrument (Cartesian Technologies, Inc.). After uv-crosslinking, the membranes were rinsed in 2× SSC and allowed to air-dry. Prior to addition of labeled cDNA probes, membranes were washed in boiling 1% SDS, rinsed with 6× SSC, and incubated in 5 mL of 42° C. Microhyb solution (Research Genetics) for 2 hr. Ten minutes prior to addition of the probes, the Microhyb solution was replaced with an equal amount of fresh 42° C. Microhyb solution containing denatured human Cot-1 DNA (Gibco BRL) and poly(dA) primer (Research Genetics) (both at final concentrations of 1 ng/μl).
For each reverse transcription reaction, 2 μg of mRNA was incubated with oligo(dT) primer (200 ng/μl) at 70° C. for 10 minutes. Tubes were chilled and spun briefly. The following reagents (with the final concentrations in parentheses) were added: first strand buffer (1×), DTT (10 mM), dNTP mix (1 mM each of dATP, dGTP, dTTP), [α-^33P]dCTP (3.3 μCi/μl) and Superscript II Reverse Transcriptase (10 units/μL). The samples were kept at 37° C. for 1.5 hr. Unincorporated nucleotides were removed by spinning the reaction mixture through a G-50 column. […] Probe quality was assessed by electrophoresis on a 10% denaturing polyacrylamide minigel. Denatured probes were added directly to the Microhyb solution and hybridized overnight at 42° C. Membranes were washed twice under each of the following conditions: (1) 2× SSC/0.1% SDS at room temperature, 5 min; (2) 0.2× SSC/0.1% SDS at room temperature, 5 min; (3) 0.2× SSC/0.1% SDS at 42° C., 15 min, (4) 0.1× SSC/0.1% SDS at 68° C., 15 min. Membranes were then rinsed briefly in 2× SSC at room temperature, covered with Saran wrap, and exposed to storage phoshpor screens. After three days, screens were scanned using a Storm phosphorimager (Molecular Dynamics). Images were analyzed using ImageQuant software (Molecular Dynamics).
We employed a rapid dot blot assay as a secondary screen for gene expression changes. We tested each of the unique clones against each of the three treatments. […] For these clones, the dot blot assay functioned not as a confirmation assay but as an initial screen for differential expression. Dot blots were prepared by robotically arraying subclone-derived PCR products in quadruplicate onto positively charged nylon membranes. […] In general, each dot consisted of over 80 ng of PCR product, as estimated by inspection of the PCR reactions run on agarose gels. This high quantity of DNA ensured that saturation of spots, with consequent loss of quantitation, would not occur. Spots of genomic DNA were included on each filter to allow normalization between control and treated sample intensities.

HepG2 cells [3] = test: Annexin V assay for apoptosis; type: cell-based, human; settings: 20 mM acetaminophen, 16 mM caffeine, 100 mM thioacetamide, by 24 hr
Protocol: Translocation of phosphatidyl serine to the cell membrane was measured by affinity binding to annexin V using the Apotest Biotin kit from NeXins Research B.V. (The Netherlands). HepG2 cells were cultured as above and plated into Cytostar-T scintillating microplates (Amersham) at 10^6 cells/well and grown for 3 days prior to treatment as above. Following treatment, 50 μl/well of 4 μg/ml annexin V-biotin in 2× Ca^2+ binding buffer was added. Wells with no annexin V-biotin were included as background controls. Following incubation for 20 min at room temperature, 50 μl/well of 0.5 μCi [^35S] streptavidin (Amersham) in 2× Ca^2+ binding buffer was added and incubated for 2 hrs at room temperature with gentle shaking. Plates were spun down at 1,100 rpm for 8 min and read on a Packard TopCount instrument (see e.g., Vermes et al., J. Immunol. Methods 185:81-93 (1995)).

[4] = 24 hr, 20 mM APAP, 16 mM CAF, 100 mM THI

## CC(=O)Nc1ccc(O)cc1 [acetaminophen]
HepG2 cells [1]; acetaminophen 0.02 mM
  Number of difference bands on DD-PCR gel, Decreased: 0
  Number of difference bands on DD-PCR gel, Increased: 0
HepG2 cells [1]; acetaminophen 0.2 mM
  Number of difference bands on DD-PCR gel, Decreased: 0
  Number of difference bands on DD-PCR gel, Increased: 0
HepG2 cells [1]; acetaminophen 2 mM
  Number of difference bands on DD-PCR gel, Decreased: 1
  Number of difference bands on DD-PCR gel, Increased: 4
HepG2 cells [1]; acetaminophen 20 mM
  Number of difference bands on DD-PCR gel, Decreased: 16
  Number of difference bands on DD-PCR gel, Increased: 18
HepG2 cells [2]; 24 hr
  Number of 27 unconfirmed or non-matching clones showing an expression change: 7

## CC(=N)S [thioacetamide]
HepG2 cells [2]; 24 hr treatments
  Fold change, down-regulation: EST (AA283846), clone 90-1: 7.7 fold
  Fold change, down-regulation: EST (AA805555), clone 83: 11.1 fold
  Fold change, down-regulation: EST (AI310515), clone 32-2: 9.1 fold
  Fold change, down-regulation: Lactate dehydrogenase A, clone A24-1: 5.0 fold
  Fold change, down-regulation: Pyruvate dehydrogenase E1-beta subunit, clone A123: 12.5 fold
  Fold change, down-regulation: Transforming growth factor-beta type III receptor, clone A155-6: 3.0 fold
  Fold change, up-regulation: Activating transcription factor 4, clone A108D: 3.8 fold
  Fold change, up-regulation: EST (N22016), clone AI24-6: up
  Fold change, up-regulation: EST, similar to ubiquitin hydrolase, clone A130-3: up
HepG2 cells [2]; [4]
  Dot blot expression ratio (treated/control): 90-kDa heat-shock protein, clone 23: 0.96 n
  Dot blot expression ratio (treated/control): ABC transporter, clone 31-4: 0.28
  Dot blot expression ratio (treated/control): AH antigen, clone A136-1: 0.00
  Dot blot expression ratio (treated/control): Activating transcription factor 4, clone A108D: 3.77
  Dot blot expression ratio (treated/control): Apolipoprotein B-100, clone A124-1: 0.76
  Dot blot expression ratio (treated/control): Atopy related autoantigen CALC, clone A182-1: 0.66
  Dot blot expression ratio (treated/control): Centromere protein E (CENPE), clone A187-5: 0.65
  Dot blot expression ratio (treated/control): Centromere protein F (400 kD) (CENPF kinetochore protein), clone A136: 1.98
  Dot blot expression ratio (treated/control): Cu/Zn superoxide dismutase (SOD), clone A94-4: 0.91
  Dot blot expression ratio (treated/control): DB1, clone A176-3: 0.36
  Dot blot expression ratio (treated/control): DNA topoisomerase II binding protein, clone A172: 0.49
  Dot blot expression ratio (treated/control): E1B 19K/Bcl-2-binding protein Nip3, clone 81-6: 0.23 c
  Dot blot expression ratio (treated/control): EST (AA283846), clone 90-1: 0.13 c
  Dot blot expression ratio (treated/control): EST (AA430551), clone A160-5: 0.17
  Dot blot expression ratio (treated/control): EST (AA581887), clone 102-2: 1.80 n
  Dot blot expression ratio (treated/control): EST (AA581887), clone A102-1: 1.78 n
  Dot blot expression ratio (treated/control): EST (AA805555), clone 83: 0.09 c
  Dot blot expression ratio (treated/control): EST (AC007400), clone A95-1: 1.07
  Dot blot expression ratio (treated/control): EST (AI049999), clone A104-5: 0.89
  Dot blot expression ratio (treated/control): EST (AI310515), clone 32-2: 0.11 c
  Dot blot expression ratio (treated/control): EST (N22016), clone A124-6: up
  Dot blot expression ratio (treated/control): EST (N26592), clone 101: 0.26 c
  Dot blot expression ratio (treated/control): EST (N39662), clone A99-1: 0.50
  Dot blot expression ratio (treated/control): EST (W44772), clone 87: 1.11 n
  Dot blot expression ratio (treated/control): EST, bithoraxoid-like protein, clone A183-1: 0.42
  Dot blot expression ratio (treated/control): EST, similar to Long-chain acyl-coenzyme A synthetase, clone A105-7: 0.90
  Dot blot expression ratio (treated/control): EST, similar to Ubiquinol cytochrome C reductase core protein 2, clone 93: 0.38 c
  Dot blot expression ratio (treated/control): EST, similar to arachidonate 15-lipoxygenase, clone 84: 0.75 n
  Dot blot expression ratio (treated/control): EST, similar to ubiquitin hydrolase, clone A130-3: up
  Dot blot expression ratio (treated/control): Esterase D/formylglutathione hydrolase, clone 24: 0.31 c
  Dot blot expression ratio (treated/control): G1 to S phasetransition 1 (GSPT1), clone 103-2: 1.57 n
  Dot blot expression ratio (treated/control): Glucose transporter pseudogene, clone 23-1: 0.34
  Dot blot expression ratio (treated/control): High mobility group 2 protein (HMG-2), clone A111-8: 1.12
  Dot blot expression ratio (treated/control): Human Alu-Sc subfamily consensus sequence, clone A96-4: 0.84
  Dot blot expression ratio (treated/control): Human transposon-like element mRNA, clone A135-3: 0.59
  Dot blot expression ratio (treated/control): Interleukin 6 signal transducer (gp130, oncostatin M receptor), clone 65-1: 0.96 n
  Dot blot expression ratio (treated/control): Ku autoimmune antigen, clone 27-2: 0.47 c
  Dot blot expression ratio (treated/control): Lactate dehydrogenase A, clone A24-1: 0.20 c
  Dot blot expression ratio (treated/control): Lipoprotein-associated coagulation inhibitor, clone A94-3: 0.27 c
  Dot blot expression ratio (treated/control): Liver microsomal UDP-glucuronosyltransferase (UDPGT), clone A128-7: 0.70
  Dot blot expression ratio (treated/control): Lsm5 protein, clone A115-5: 0.39
  Dot blot expression ratio (treated/control): MEGF9, clone 74: 0.96 n
  Dot blot expression ratio (treated/control): Myristoyl CoA:protein N-myristoyltransferase, clone 82: 0.41
  Dot blot expression ratio (treated/control): NADH dehydrogenase subunit 2, clone A131-1: 1.45
  Dot blot expression ratio (treated/control): Nucleosome assembly protein 1-1ike 1 (NAP1L1), clone 20-2: 0.92 n
  Dot blot expression ratio (treated/control): PPP1R5 gene, clone 30-5: 0.17 c
  Dot blot expression ratio (treated/control): T-complex polypeptide 1, clone 21-2: 1.03
  Dot blot expression ratio (treated/control): Transforming growth factor-beta type III receptor, clone A155-6: 0.33
  Dot blot expression ratio (treated/control): cAMP-responsive enhancer binding protein, alt. spliced (CREB327), clone 98: 0.70 n
  Dot blot expression ratio (treated/control): procollagen-lysine 2-oxoglutarate 5-dioxygenase 2, clone A185: 0.36
  Dot blot expression ratio (treated/control): pyruvate dehydrogenase El-beta subunit, clone A123: 0.08
HepG2 cells [2]; 24 hr
  Number of 27 unconfirmed or non-matching clones showing an expression change: 9
HepG2 cells [3]
  Apoptosis, annexin V assay: induces the greatest response
